Earlier results, collected in patent publication US20230104874A1, “HERBAL PREPARATION FOR PREVENTION AND TREATMENT OF HELICOBACTER PYLORI INFECTION” (HerbElixa DOO BEOGRAD- NOVI BEOGRAD, priority 2020, published 2023).

Experiments:
H. pylori = conditions: literature
Gram negative bacteria = conditions: Korona-Glowniak et al. 2020

| Compound | anti-H. pylori activity in vitro (H. pylori) | antibacterial activity against Gram negative bacteria (Gram negative bacteria) |
| --- | --- | --- |
| Cc1ccc(C(C)C)cc1O [carvacrol] | bactericidal activity | – |
| Cc1ccc(C(C)C)cc1 [p-cymene] | – | no antibacterial activity |
| Cc1ccc(C(C)C)c(O)c1 [thymol] | high bactericidal activity | – |
| CC1=CCC(C(C)C)=CC1 [γ-terpinene] | – | no antibacterial activity |
